# Values joined by “and” are separate entries in the source; they are usually repeats but may differ in a detail not shown here. Equal values may be shown once. Inconclusive results and toxic doses are left out. *1 amine or outer side, *2 acyl side, *3 side chain or, on linkers, in order; H or OH if unused. Where a SMILES comes first, the peptide text is derived from it. Bridges are numbered along the chain shown (N, C = ends). Roman numbers before positions name the chains, in order. [ ]: non-standard residue; d: D form. Actinocin(9to1) = Cc1c2oc3c(C)ccc(C(=O)[*:1])c3nc-2c(C(=O)[*:2])c(N)c1=O; aThr = C[C@H](O)[C@H](N)C(=O)O; NMeV = CN[C@H](C(=O)O)C(C)C; Sar = CNCC(=O)O
# Tested on: BDF1 mice, P388 leukemia (terephthalanilide-resistant), survival T/C
# Assay: NCI In Vivo Anticancer Drug Screen. Data for tumor model P388 Leukemia resistant to A Terephthalanilide; NSC 38280 (intraperitoneal) in B6D2F1 (BDF1) mice
# Settings: endpoint: median survival time, higher = longer survival
# Protocol: The antitumor activity of compounds was measured in mice bearing transplantable tumors. Survival or tumor size were measured and the results are expressed as the measurement made in the treated group (T) divided by the measurement made in the vehicle treated control group (C). The tumor model used in this assay is P388 Leukemia resistant to A Terephthalanilide; NSC 38280 (intraperitoneal) in B6D2F1 (BDF1) mice
# [1] = dose: 62.5 mg/kg/injection, schedule: Q01DX010 (ip), vehicle: saline
# [2] = dose: 125.0 mg/kg/injection, schedule: Q01DX010 (ip), vehicle: saline
# [3] = dose: 250.0 mg/kg/injection, schedule: Q01DX010 (ip), vehicle: saline
# [4] = dose: 500.0 mg/kg/injection, schedule: Q01DX010 (ip), vehicle: saline
# [5] = dose: 0.5 mg/kg/injection, schedule: Q01DX010 (ip), vehicle: saline
# [6] = dose: 1.0 mg/kg/injection, schedule: Q01DX010 (ip), vehicle: saline
# [7] = dose: 2.0 mg/kg/injection, schedule: Q01DX010 (ip), vehicle: saline
# [8] = dose: 12.0 mg/kg/injection, schedule: Q01DX010 (ip), vehicle: saline
# [9] = dose: 18.0 mg/kg/injection, schedule: Q01DX010 (ip), vehicle: saline
# [10] = dose: 27.0 mg/kg/injection, schedule: Q01DX010 (ip), vehicle: saline
# [11] = dose: 25.0 micrograms/kg/injection, schedule: Q01DX010 (ip), vehicle: other
# [12] = dose: 50.0 micrograms/kg/injection, schedule: Q01DX010 (ip), vehicle: other
# [13] = dose: 16.0 mg/kg/injection, schedule: Q01DX010 (ip), vehicle: saline
# [14] = dose: 8.0 mg/kg/injection, schedule: Q01DX010 (ip), vehicle: saline
# [15] = dose: 3.13 mg/kg/injection, schedule: Q01DX010 (ip), vehicle: saline
# [16] = dose: 6.25 mg/kg/injection, schedule: Q01DX010 (ip), vehicle: saline
# [17] = dose: 12.5 mg/kg/injection, schedule: Q01DX010 (ip), vehicle: saline
# [18] = dose: 25.0 mg/kg/injection, schedule: Q01DX010 (ip), vehicle: saline
# [19] = dose: 167.0 mg/kg/injection, schedule: Q01DX010 (ip), vehicle: saline
# [20] = dose: 2.5 mg/kg/injection, schedule: Q01DX010 (ip), vehicle: saline
# [21] = dose: 5.0 mg/kg/injection, schedule: Q01DX010 (ip), vehicle: saline
structure (smiles),measurement,setting,value
O=CCC(O)C(O)C(O)CO (stereo not drawn),T/C,[1],110 % of control and 111 % of control
same,T/C,[2],100 % of control and 110 % of control
same,T/C,[3],110 % of control and 111 % of control
same,T/C,[4],115 % of control and 122 % of control
CS(=O)(=O)OCCN(CCOS(C)(=O)=O)c1ccc(N=O)cc1,T/C,[5],100 % of control
same,T/C,[6],109 % of control
same,T/C,[7],109 % of control and 113 % of control
O=P1(N(CCCl)CCCl)NCCCO1 (stereo not drawn),T/C,"dose: 11.3 mg/kg/injection, schedule: Q01DX005 (ip), vehicle: saline",100 % of control and 109 % of control
same,T/C,"dose: 11.3 mg/kg/injection, schedule: Q01DX010 (ip), vehicle: saline",111 % of control
same,T/C,"dose: 22.5 mg/kg/injection, schedule: Q01DX005 (ip), vehicle: saline",118 % of control and 122 % of control
same,T/C,"dose: 45.0 mg/kg/injection, schedule: Q01DX005 (ip), vehicle: saline",154 % of control
same,T/C,"dose: 45.0 mg/kg/injection, schedule: Q01DX010 (ip), vehicle: saline",183 % of control
same,T/C,"dose: 90.0 mg/kg/injection, schedule: Q01DX005 (ip), vehicle: saline",272 % of control
same,T/C,"dose: 90.0 mg/kg/injection, schedule: Q01DX010 (ip), vehicle: saline",105 % of control
same,T/C,"dose: 180.0 mg/kg/injection, schedule: Q01DX010 (ip), vehicle: saline",88 % of control
C[n+]1c2ccccc2nc2c(N)cc(N)cc21,T/C,[8],100 % of control
same,T/C,[9],100 % of control
same,T/C,[10],91 % of control
"Cc1c2oc3c(C)ccc(C(=O)N[C@@H]4C(=O)N[C@H](C(C)C)C(=O)N5CCC[C@H]5C(=O)N(C)CC(=O)N(C)[C@@H](C(C)C)C(=O)O[C@H]4C)c3nc-2c(C(=O)N[C@@H]2C(=O)N[C@H](C(C)C)C(=O)N3CCC[C@H]3C(=O)N(C)CC(=O)N(C)[C@@H](C(C)C)C(=O)O[C@H]2C)c(N)c1=O (I: [aThr][dV]P[Sar][NMeV] / II: [aThr][dV]P[Sar][NMeV]; ester I:1-I:C, II:1-II:C; linker I:N-II:N via Actinocin(9to1))",T/C,"dose: 12.5 micrograms/kg/injection, schedule: Q01DX010 (ip), vehicle: other",111 % of control and 120 % of control
same,T/C,[11],116 % of control and 120 % of control
same,T/C,[12],120 % of control and 122 % of control
same,T/C,"dose: 100.0 micrograms/kg/injection, schedule: Q01DX010 (ip), vehicle: other",115 % of control and 122 % of control
CN=C(NC)c1ccc(NC(=O)Nc2ccc(NC(=O)Nc3ccc(C(=NC)NC)cc3)cc2)cc1,T/C,"dose: 13.3 mg/kg/injection, schedule: Q01DX010 (ip), vehicle: saline",111 % of control
same,T/C,"dose: 20.0 mg/kg/injection, schedule: Q01DX010 (ip), vehicle: saline",94 % of control
same,T/C,"dose: 30.0 mg/kg/injection, schedule: Q01DX010 (ip), vehicle: saline",111 % of control
Nc1nc(N)c2nc(CNc3ccc(C(=O)NC(CCC(=O)O)C(=O)O)cc3)cnc2n1 (stereo not drawn),T/C,[11],112 % of control
same,T/C,[12],112 % of control
same,T/C,"dose: 200.0 micrograms/kg/injection, schedule: Q01DX010 (ip), vehicle: other",150 % of control
CN(C)c1ccc(Nc2c3ccccc3nc3ccccc23)cc1,T/C,[13],95 % of control
same,T/C,"dose: 24.0 mg/kg/injection, schedule: Q01DX010 (ip), vehicle: saline",104 % of control
same,T/C,"dose: 36.0 mg/kg/injection, schedule: Q01DX010 (ip), vehicle: saline",100 % of control and 104 % of control and 108 % of control
same,T/C,"dose: 54.0 mg/kg/injection, schedule: Q01DX010 (ip), vehicle: saline",95 % of control and 100 % of control and 104 % of control
same,T/C,"dose: 80.0 mg/kg/injection, schedule: Q01DX010 (ip), vehicle: saline",90 % of control and 109 % of control
O=C(Nc1ccc(NC2=NCCN2)cc1)c1ccc(C(=O)Nc2ccc(NC3=NCCN3)cc2)cc1,T/C,[7],100 % of control and 106 % of control
same,T/C,"dose: 4.0 mg/kg/injection, schedule: Q01DX010 (ip), vehicle: saline",150 % of control
same,T/C,[14],181 % of control
Nc1nc2n[nH]nc2c(=O)[nH]1,T/C,"dose: 25.0 mg/kg/injection, schedule: Q01DX010 (ip), vehicle: alkali diluted with saline",162 % of control
same,T/C,"dose: 50.0 mg/kg/injection, schedule: Q01DX010 (ip), vehicle: alkali diluted with saline",162 % of control
same,T/C,"dose: 100.0 mg/kg/injection, schedule: Q01DX010 (ip), vehicle: alkali diluted with saline",175 % of control
same,T/C,"dose: 200.0 mg/kg/injection, schedule: Q01DX010 (ip), vehicle: alkali diluted with saline",175 % of control
C[C@H]1C(=O)O[C@@H]2CCN3CC=C(COC(=O)[C@](C)(O)[C@@]1(C)O)[C@H]23,T/C,[15],90 % of control and 100 % of control
same,T/C,[16],95 % of control
same,T/C,[17],95 % of control and 100 % of control
same,T/C,[18],105 % of control and 109 % of control
C1CN1c1nc(N2CC2)nc(N2CC2)n1,T/C,"dose: 0.13 mg/kg/injection, schedule: Q01DX010 (ip), vehicle: saline",94 % of control and 100 % of control
same,T/C,"dose: 0.25 mg/kg/injection, schedule: Q01DX010 (ip), vehicle: saline",105 % of control and 116 % of control
same,T/C,[5],116 % of control
same,T/C,[6],111 % of control
O=C(Nc1ccc(C2=NCCN2)cc1)c1ccc(C(=O)Nc2ccc(C3=NCCN3)cc2)cc1,T/C,"dose: 75.0 mg/kg/injection, schedule: Q01DX010 (ip), vehicle: saline",116 % of control
same,T/C,[19],122 % of control
CCCCNc1ncnc2c1cnn2C,T/C,"dose: 31.3 mg/kg/injection, schedule: Q01DX010 (ip), vehicle: saline",100 % of control
same,T/C,[1],95 % of control and 111 % of control
same,T/C,[2],88 % of control
S=P(N1CCOCC1)(N1CC1)N1CC1,T/C,[20],105 % of control and 111 % of control
same,T/C,[21],94 % of control and 105 % of control
Nc1ncnc2[nH]ncc12,T/C,"dose: 1.5 mg/kg/injection, schedule: Q01DX010 (ip), vehicle: saline",90 % of control and 95 % of control
same,T/C,"dose: 3.0 mg/kg/injection, schedule: Q01DX010 (ip), vehicle: saline",90 % of control
same,T/C,"dose: 6.0 mg/kg/injection, schedule: Q01DX010 (ip), vehicle: saline",90 % of control and 95 % of control
same,T/C,[8],90 % of control and 100 % of control
CC(=O)N(C)C,T/C,[1],90 % of control and 111 % of control
same,T/C,[2],100 % of control
same,T/C,[3],88 % of control
same,T/C,[4],95 % of control and 100 % of control
CSc1ncnc2nc[nH]c12,T/C,[18],104 % of control and 105 % of control
same,T/C,"dose: 50.0 mg/kg/injection, schedule: Q01DX010 (ip), vehicle: saline",100 % of control and 104 % of control
same,T/C,"dose: 100.0 mg/kg/injection, schedule: Q01DX010 (ip), vehicle: saline",100 % of control
same,T/C,"dose: 200.0 mg/kg/injection, schedule: Q01DX010 (ip), vehicle: saline",105 % of control and 109 % of control
Nc1nc(SCc2ccccc2)c2[nH]cnc2n1,T/C,[14],105 % of control
same,T/C,[13],100 % of control and 105 % of control
same,T/C,"dose: 32.0 mg/kg/injection, schedule: Q01DX010 (ip), vehicle: saline",121 % of control
same,T/C,"dose: 64.0 mg/kg/injection, schedule: Q01DX010 (ip), vehicle: saline",115 % of control and 122 % of control
O=C(O)CCCc1ccc(N(CCCl)CCCl)cc1,T/C,[15],100 % of control and 105 % of control
same,T/C,[16],110 % of control and 116 % of control
same,T/C,[17],105 % of control and 120 % of control
N#[N+]c1cnc([O-])[nH]c1=O,T/C,"dose: 1.25 mg/kg/injection, schedule: Q01DX010 (ip), vehicle: saline",113 % of control
same,T/C,[20],113 % of control
same,T/C,[21],95 % of control and 122 % of control
CN=C(NC)c1ccc(NC(=O)c2ccc(C(=O)Nc3ccc(C(=NC)NC)cc3)c(Cl)c2)cc1,T/C,[9],105 % of control
same,T/C,[10],100 % of control
O=C(Nc1ccc(C2=NCCN2)cc1)c1cc(C(=O)Nc2ccc(C3=NCCN3)cc2)cc([N+](=O)[O-])c1,T/C,[19],94 % of control
same,T/C,[3],100 % of control
same,T/C,"dose: 375.0 mg/kg/injection, schedule: Q01DX010 (ip), vehicle: saline",94 % of control
same,T/C,"dose: 512.0 mg/kg/injection, schedule: Q01DX010 (ip), vehicle: saline",94 % of control
CC/C(=C(/CC)c1ccc(O)cc1)c1ccc(O)cc1,T/C,"dose: 12.5 mg/kg/injection, schedule: Q01DX010 (sc), vehicle: steriod suspending solution",90 % of control
same,T/C,"dose: 25.0 mg/kg/injection, schedule: Q01DX010 (sc), vehicle: steriod suspending solution",90 % of control
same,T/C,"dose: 100.0 mg/kg/injection, schedule: Q01DX010 (sc), vehicle: steriod suspending solution",90 % of control
Cc1cc(N(CCCl)CCCl)ccc1N=Nc1ccccc1C(=O)O,T/C,[21],116 % of control
same,T/C,"dose: 40.0 mg/kg/injection, schedule: Q01DX010 (ip), vehicle: saline",100 % of control

# — PubChem BioAssay AID338 (DTP/NCI, 2004)
